# Results as given in patent US20030017186A1, “Carboxylic acid fluorides as pesticides” (priority 1999, published 2003).
# How the values were obtained:
# Assay type in all cases: in vivo
# [1] = test system: House longhorn beetle (Hylotrupes bajulus) larvae; experiment: Fumigation test in glass vessel, house longhorn beetle larvae in wood blocks; conditions: HYLOBA larvae in wood blocks; Example 7; ACF 53.0/54.6/0 g/m^3, second gas (SF) 43.6/41.4/39.8 g/m^3 (1st/2nd/3rd fumigation); 20.0/20.2/19.8 C.
# Source text: (§1) b1) House longhorn beetle (Hylotrupes bajulus)=HYLOBA
# (§2) The test organisms, separated by species, were placed into a glass vessel measuring 30 cm×30 cm×60 cm, which was sealed with a glass lid so as to be airtight. The adults and the larvae of the mealworm beetle (Tenebrio molitor) and the broad-horned flour beetle (Gnathocerus cornutus) were placed into small glass vessels approximately 5 cm in diameter, which were closed with a gauze lid and in which they could freely move about. The larvae of the rice weevil had burrowed into seeds of grain. The wood pest larvae were inserted into small blocks of wood measuring 5 cm×2.5 cm×2 cm. The openings were sealed with wads of cotton wool. Only one each of the larvae of the house longhorn beetle (Hylotrupes bajulus) was inserted into a piece of wood, while 6-8 larvae of the common furniture beetle (Anobium punctatum) were inserted into each piece of wood.
# (§3) The respective gas was then introduced into the fumigation vessel through a gas line from a gas tank that contained the specified amount of gas. After a defined time period, the fumigation vessel was purged with compressed air. The discharged gas was purified by an attached gas scrubber.
# (§4) The beetles were observed until they died. This point was recorded for each species. The larvae of the wood pests as well as the larvae of the rice weevil (Sitophilus oryzae) had to be picked out of the wood or the grain to check their condition. If any of the animals were still alive, the wooden test blocks remaining in the vessel were fumigated again and were reexamined after the corresponding time span had elapsed. The same number of animals in the untreated control was also checked at each point.
# (§5) The vitality of the animals was checked at certain time intervals. The beetles could be observed through the fumigation vessel. This was also true for the larvae of the mealworm beetle and the broad-horned flour beetle. The wooden test blocks of the wood pest larvae were opened with hammer and chisel. Tweezers were used to pull the rice weevil larvae out of the grain seeds. The exact time intervals and the number of the evaluated pests were documented in the test results.
# [2] = test system: Mealworm beetle (Tenebrio molitor); experiment: Fumigation test in glass vessel, mealworm beetles; conditions: TENEMO beetles; Example 7; ACF 53.0/54.6/0 g/m^3, second gas (SF) 43.6/41.4/39.8 g/m^3 (1st/2nd/3rd fumigation); 20.0/20.2/19.8 C.
# Source text: (§6) a1) Mealworm beetle (Tenebrio molitor)=TENEMO
# as §2, §3, §4, §5
# [3] = test system: House longhorn beetle (Hylotrupes bajulus); experiment: Fumigation test in glass vessel, house longhorn beetles; conditions: HYLOBA beetles; Example 7; ACF 53.0/54.6/0 g/m^3, second gas (SF) 43.6/41.4/39.8 g/m^3 (1st/2nd/3rd fumigation); 20.0/20.2/19.8 C.
# Source text: as §1, §2, §3, §4, §5
# [4] = test system: Mealworm beetle (Tenebrio molitor) larvae; experiment: Fumigation test in glass vessel, mealworm beetle larvae; conditions: TENEMO larvae; Example 7; ACF 53.0/54.6/0 g/m^3, second gas (SF) 43.6/41.4/39.8 g/m^3 (1st/2nd/3rd fumigation); 20.0/20.2/19.8 C.
# Source text: as §6, §2, §3, §4, §5
# [5] = test system: Broad-horned flour beetle (Gnathocerus cornutus) larvae; experiment: Fumigation test in glass vessel, broad-horned flour beetle larvae; conditions: GNATCO larvae; Example 7; ACF 53.0/54.6/0 g/m^3, second gas (SF) 43.6/41.4/39.8 g/m^3 (1st/2nd/3rd fumigation); 20.0/20.2/19.8 C.
# Source text: (§7) a3) Broad-horned flour beetle (Gnathocerus cornutus)=GNATCO
# as §2, §3, §4, §5
# [6] = test system: Common furniture beetle (Anobium punctatum) larvae; experiment: Fumigation test in glass vessel, common furniture beetle larvae in wood blocks; conditions: ANOBPU larvae in wood blocks; Example 7; ACF 53.0/54.6/0 g/m^3, second gas (SF) 43.6/41.4/39.8 g/m^3 (1st/2nd/3rd fumigation); 20.0/20.2/19.8 C.
# Source text: b2) Common furniture beetle (Anobium punctatum)=[…]
# as §2, §3, §4, §5
# [7] = test system: Saw-toothed grain beetle (Oryzaephilus surinamensis); experiment: Fumigation test in glass vessel, saw-toothed grain beetles; conditions: ORYZSA beetles; Example 7; ACF 53.0/54.6/0 g/m^3, second gas (SF) 43.6/41.4/39.8 g/m^3 (1st/2nd/3rd fumigation); 20.0/20.2/19.8 C.
# Source text: a4) Saw-toothed grain beetle (Oryzaephilus surinamensis)=ORYZSA
# as §2, §3, §4, §5
# [8] = test system: Broad-horned flour beetle (Gnathocerus cornutus); experiment: Fumigation test in glass vessel, broad-horned flour beetles; conditions: GNATCO beetles; Example 7; ACF 53.0/54.6/0 g/m^3, second gas (SF) 43.6/41.4/39.8 g/m^3 (1st/2nd/3rd fumigation); 20.0/20.2/19.8 C.
# Source text: as §7, §2, §3, §4, §5
# [9] = test system: Rice weevil (Sitophilus oryzae); experiment: Fumigation test in glass vessel, rice weevils; conditions: SITTOR beetles; Example 7; ACF 53.0/54.6/0 g/m^3, second gas (SF) 43.6/41.4/39.8 g/m^3 (1st/2nd/3rd fumigation); 20.0/20.2/19.8 C.
# Source text: a2) Rice weevil (Sitophilus oryzae)=SITTOR
# as §2, §3, §4, §5
structure (smiles),measurement,setting,value
"O=C(F)C(F)(F)Cl [CFACF, chlorodifluoroacetyl fluoride]","Number alive, 1 hr. after 1st Fumigation",[1],5
same,"Number alive, 3 hrs. after 1st Fumigation",[1],5
same,"Number alive, 6 hrs after 1st Fumigation",[1],5
same,"Number dead, 1 hr. after 1st Fumigation",[1],0
same,"Number dead, 3 hrs. after 1st Fumigation",[1],0
same,"Number dead, 6 hrs after 1st Fumigation",[1],0
same,"Number alive, 30 min. after 1st Fumigation",[2],10
same,"Number alive, 1 hr. after 1st Fumigation",[2],10
same,"Number alive, 3 hrs. after 1st Fumigation",[2],10
same,"Number alive, 6 hrs after 1st Fumigation",[2],5
same,"Number dead, 30 min. after 1st Fumigation",[2],0
same,"Number dead, 1 hr. after 1st Fumigation",[2],0
same,"Number dead, 3 hrs. after 1st Fumigation",[2],0
same,"Number dead, 6 hrs after 1st Fumigation",[2],5
same,"Number alive, 30 min. after 1st Fumigation",[3],0
same,"Number dead, 30 min. after 1st Fumigation",[3],6
same,"Number alive, 30 min. after 1st Fumigation",[4],10
same,"Number alive, 1 hr. after 1st Fumigation",[4],10
same,"Number alive, 3 hrs. after 1st Fumigation",[4],0
same,"Number dead, 30 min. after 1st Fumigation",[4],0
same,"Number dead, 1 hr. after 1st Fumigation",[4],0
same,"Number dead, 3 hrs. after 1st Fumigation",[4],10
same,"Number alive, 30 min. after 1st Fumigation",[5],7
same,"Number alive, 1 hr. after 1st Fumigation",[5],7
same,"Number alive, 3 hrs. after 1st Fumigation",[5],0
same,"Number dead, 30 min. after 1st Fumigation",[5],8
same,"Number dead, 1 hr. after 1st Fumigation",[5],8
same,"Number dead, 3 hrs. after 1st Fumigation",[5],15
same,"Number alive, 1 hr. after 1st Fumigation",[6],6
same,"Number alive, 3 hrs. after 1st Fumigation",[6],3
same,"Number alive, 6 hrs after 1st Fumigation",[6],4
same,"Number dead, 1 hr. after 1st Fumigation",[6],0
same,"Number dead, 3 hrs. after 1st Fumigation",[6],3
same,"Number dead, 6 hrs after 1st Fumigation",[6],2
same,"Number alive, 30 min. after 1st Fumigation",[7],0
same,"Number dead, 30 min. after 1st Fumigation",[7],15
same,"Number alive, 30 min. after 1st Fumigation",[8],0
same,"Number dead, 30 min. after 1st Fumigation",[8],15
same,"Number alive, 30 min. after 1st Fumigation",[9],7
same,"Number alive, 1 hr. after 1st Fumigation",[9],7
same,"Number alive, 3 hrs. after 1st Fumigation",[9],0
same,"Number dead, 30 min. after 1st Fumigation",[9],8
same,"Number dead, 1 hr. after 1st Fumigation",[9],8
same,"Number dead, 3 hrs. after 1st Fumigation",[9],15
